Reference: patent publication US20170128366A1, “PHARMACEUTICAL FORMULATIONS OF CHELATING AGENTS AS A METAL REMOVAL TREATMENT SYSTEM” (ZONEONE PHARMA, INC., priority 2013, published 2017)

Assays:
[1] = cited from earlier work
[2] = in vivo, cited from earlier work
[3] = patients who take deferasirox; cited from earlier work
[4] = Active loading of DFO or doxorubicin into liposomes without membrane modifier, effect of temperature; assay type: physicochemical; settings: 10 min, pH 6.5
Procedure: Active loading of DFO using no ethanol (or other membrane modifier) was done using liposomes composed of either a fluid-phase lipid (egg PC) or a gel-phase lipid (HSPC), specifically, egg PC liposomes (3:2 Chol, 0.5 M ammonium sulfate, 90 nm) or HSPC liposomes (3:2 Chol, 250 mM ammonium sulfate, 90 nm) were remote loaded with DFO at a temperature range of 40-120° C. (pH 8.0) for either 10 min or 30 min. […] The target drug to lipid ratio was 170 g DFO/mol PL. After the DFO was loaded the tubes were rapidly cooled to room temperature. Unencapsulated DFO was removed by dialysis at 4° C., and drug/PL concentrations were analyzed by HPLC as described in paragraph [0108].
This experiment was done in the absence of a chemical modifier. Liposomes were composed of either a fluid-phase lipid (egg PC) or a gel-phase lipid (HSPC), specifically, egg PC liposomes (3:2 Chol, 0.5 M ammonium sulfate, 90 nm) or HSPC liposomes (3:2 Chol, 0.25 M ammonium sulfate, 90 nm) were remote loaded with DFO or doxorubicin at a temperature range between 40-120° C. for 10 min. Doxorubicin concentration in the loading solution was 5 mg/mL and a target drug to lipid ratio of 170 g DFO/mol PL. DFO was loaded at pH 8 while doxorubicin was loaded at pH 6.5. Unencapsulated drug was removed by dialysis at 4° C., and drug/PL concentrations were analyzed by HPLC as described in paragraph [0108].

Row | active loading efficiency ([4]; HSPC liposomes (3:2 Chol, 0.25 M ammonium sulfate), 60° C. and above) | active loading ([4]; HSPC liposomes, 40° C.) | active loading ([4]; egg PC liposomes (3:2 Chol, 0.5 M ammonium sulfate), 30-110° C.) | SMILES | water solubility [1] | absorption after oral administration / from the gastro-intestinal tract [2] | clearance from the circulation [2] | solubility [1] | risk of renal and hepatic failure [3]
1 |  |  |  | CC(=O)N(O)CCCCCNC(=O)CCC(=O)N(O)CCCCCNC(=O)CCC(=O)N(O)CCCCCN [DFO, Deferoxamine] | very water-soluble | poorly absorbed | rapidly cleared |  | 
2 |  |  |  | O=C(O)c1ccc(-n2nc(-c3ccccc3O)nc2-c2ccccc2O)cc1 [deferasirox] | very low water-solubility | well absorbed | cleared from the circulation slowly | less than 2 mg/mL | higher risk
3 | > 90% | loaded very poorly | high efficiency | COc1cccc2c1C(=O)c1c(O)c3c(c(O)c1C2=O)C[C@@](O)(C(=O)CO)C[C@@H]3O[C@H]1C[C@H](N)[C@H](O)[C@H](C)O1 [doxorubicin] |  |  |  |  | 
